Assay results published in patent US20060099712A1, “Correlation of anti-cancer activity of dyes with redox potentials” (Eastman Kodak Company, priority 2004, published 2006).
Where “and” joins values, the source holds several entries; their conditions need not be identical. Equal values may be shown once. Read-outs that look alike come from different tables or passages of the source.

Key:
[1] = tested on: CV-1 Normal Monkey Kidney Epithelial; experiment: Clonogenic dye screening assay, CV-1 cells (IC50); format: cell-based, African green monkey; details: for IC50: Primates; for CV (IC50 in the CV-1 cell line): 3 hrs treatment, unit from method b117-118
Excerpt: CX-1 is a cancerous human colon adenocarcinoma cell line. CV-1 is a non-cancerous control, which is a kidney epithelial cell line from an African green monkey. IC50 is the dye concentration at which 50% of the cells are killed. Selectivity or kill ratio is defined as the ratio of […] at IC50 for both CX-1 and CV-1. A ratio with a high number indicates a high selectivity.
The dyes were screened in two cell lines. CX-1 is a human colon adenocarcinoma cell line. CV-1 is a kidney epithelial cell line from an African green monkey. CV-1 was used as a reference because no normal human epithelial cell line is available for clonogenic assay.
In the initial screen, dyes were examined at six different concentrations to generate a dose response curve. An IC50 value, the concentration at which 50% of the cells are killed, was then calculated. Initially, a dye concentration of 1.0 μg/mL was the highest examined for the CX-1 cell line and 0.005 μg/mL was the lower limit. The corresponding limits on the CV-1 cell line were […].
The screening procedure used a response curve that was determined from eight dye concentrations. The upper and lower limits of CX-1 were 0.32 and 0.0015 μg/mL, respectively, and the corresponding revised limits on CV-1 were 3.2 and 0.025 μg/mL. The screening results were reported by assigning an IC50 value to each dye for the CV-1 and CX-1 cell lines. These values will be referred to herein simply as CV and CX. The most desirable result would be to have a dye that was highly toxic to carcinoma cells but nontoxic to ‘normal’ cells. One measure of this type of selectivity is the ratio of the IC50's in the normal cell line to that in the carcinoma line, CV/CX.
Compounds are screened via an in vitro assay. CV-1 and CX-1 cells are seeded into separate assay plates. The plates are treated with varying concentrations of test compounds, rinsed, and colonies allowed to grow. IC50's are determined and drugs evaluated based on their selectivity and toxicity. Assay Steps: • I. Seeding Cells • II. Weighing • III. Preparation of Solution • IV. Treatment • V. Rinsing and Feeding • VI. Fixing • VII. IC50 Determination I. Seeding Cells
The cells should be seeded 16-30 hours before treatment. The media for CV-1 cells is DME+5% calf serum +5% Nuserum. The media for CX-1 cells is RPMI/DME (50/50)+5% calf serum +5% Nuserum.
(c) number of cells based on 2000 CX-1 cells/well and 1000 CV-1 cells/well. NOTE: Always make enough cell suspension for 1 extra plate to allow for volume loss during transfers.
• (a) For CV-1: 256 ug/ml-256 ul of 1 mg/ml stock +744 ul DMSO • (b) For CX-1: 25.6 ug/ml-100 ul of 256 ug/ml+900 ul DMSO IV. Treatment • 1. Each plate is treated with 4 test compounds, one positive control and one negative control. • 2. Serial dilutions of the compounds are made in the following way:
2 multi-well pipetters are used. One is set for 10 ul and one for 200 ul. Each is equipped with 6 tips spaced such that they fit into the 6 rows of a plate. 390 ul of media is added to the first column of each plate. 10 ul each of 4 compound solutions, a positive and a negative control are taken up and put into the first column of wells. The 200 ul pipetter is then placed in the same wells, pipetted up and down 3 times and two 200 ul aliquots are moved to the next column of wells. This column is pipetted up and down 3 times and 400 ul moved to column 3, etc. The final 400 ul excess from column 8 is discarded.
• 3. Label the plates along the front, each row −1 compound. • 4. Incubate the plates at 37° C. for 3 hrs. V. Rinsing • 1. Prepare several bottles of CX-1 and CV-1 media. • 2. Check for precipitate in first column of each plate and note. • 3. Starting with the plates treated first, rinse several plates at a time by aspirating the treatments and refilling each well with 0.5-1.0 ml of the rinse media. Aspirate and refill 2 more times for a total of 3 rinses. • 4.

[2] = tested on: CX-1 Human Colon Carcinoma; experiment: Clonogenic dye screening assay, CX-1 cells (IC50); format: cell-based; details: for IC50: Homo sapiens; for CV/CX (selectivity, kill ratio): ratio of IC50 in normal CV-1 line to IC50 in carcinoma CX-1 line; for CX (IC50 in the CX-1 cell line): 3 hrs treatment, unit from method b117-118; for Selectivity: Table 1, cell line not given, values equal CV/CX of Table II
Outline: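 Cells seeded 16-30 h ahead (2000 CX-1 or 1000 CV-1 per well), exposed to serially diluted dyes for 3 h at 37 °C, rinsed three times, then grown into colonies. Eight-point curves spanned 0.32-0.0015 μg/mL (CX-1) and 3.2-0.025 μg/mL (CV-1). IC50 is the concentration killing 50% of cells.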

[3] = CV-1, 3 hrs treatment, colonies after 7-10 days, unit from method, read-out: CV (IC50 in the CV-1 cell line)
[4] = CX-1, 3 hrs treatment, colonies after 7-10 days, unit from method, read-out: CX (IC50 in the CX-1 cell line)

## CCN1/C(=C/C=C/c2sc3cc4ccccc4nc3[n+]2CC)Sc2ccc3ccccc3c21 [Dye D-114]
[1]; [3]
  IC50: 3 µg/mL
[2]; [4]
  IC50: 0.05 µg/mL
[2]
  CV/CX (selectivity, kill ratio): 60

## CCN1/C(=C/C=N/c2sc3ccccc3[n+]2CC)Sc2ccccc21 [Dye D-149]
[1]; [3]
  IC50: 7 µg/mL
[2]; [4]
  IC50: 0.09 µg/mL
[2]
  CV/CX (selectivity, kill ratio): 77.8

## CC[n+]1c(/C=C/C=C2\Sc3ccccc3N2CC#N)oc2ccccc21 [Dye D-124]
[1]; [3]
  IC50: 10 µg/mL
[1]; CV-1, Table XXI, oxathiacarbocyanine nitrogen substituents, CV-1 cells, read-out: CV
  IC50: 10 µg/mL
[2]; [4]
  IC50: 0.1 µg/mL
[2]; CX-1, Table XXI, oxathiacarbocyanine nitrogen substituents, CX-1 cells, read-out: CX
  IC50: 0.1 µg/mL
[2]; Table XXI, selectivity ratio, value of 1 where dye inactive
  CV/C: 100.0
[2]
  CV/CX (selectivity, kill ratio): 100

## CCN1/C(=C(\C=C\c2oc3ccccc3[n+]2CC)c2ccccc2)Sc2ccccc21.[I-] [Dye D-139]
[1]; colonies after 7-10 days
  CV (IC50 in the CV-1 cell line): 3.0 µg/mL
[2]; colonies after 7-10 days
  CX (IC50 in the CX-1 cell line): 0.03 µg/mL
[2]
  CV/CX (selectivity, kill ratio): 100

## CCSC(=C\c1oc2ccccc2[n+]1CC)/C=C1\Sc2ccccc2N1CC.[I-] [Dye D-142]
[1]; colonies after 7-10 days
  CV (IC50 in the CV-1 cell line): 0.5 µg/mL
[2]; colonies after 7-10 days
  CX (IC50 in the CX-1 cell line): <0.005 µg/mL

## CCN1/C(=C/C=C/C=C/c2sc3cc4ccccc4cc3[n+]2CC)Sc2cc3ccccc3cc21 [Dye D-162]
[1]; [3]
  IC50: 3 µg/mL
[2]
  CV/CX (selectivity, kill ratio): 60

## CCN1/C(=C/C=C/c2oc3ccc(SC)cc3[n+]2C)Sc2ccccc21.[I-] [Dye D-138]
[1]; colonies after 7-10 days
  CV (IC50 in the CV-1 cell line): 0.3 µg/mL
[2]; colonies after 7-10 days
  CX (IC50 in the CX-1 cell line): <0.005 µg/mL
[2]
  CV/CX (selectivity, kill ratio): >60.0 and 60

## CC[n+]1c(/C=C/C=C2/c3c(C)ccc(C)c3C(C)(Cc3ccccc3)N2C)sc2ccccc21 [Dye D-132]
[1]; [3]
  IC50: 3 µg/mL
[1]; CV-1, Table XVI, unsymmetrical dyes, CV-1 cells, read-out: CV
  IC50: 3 µg/mL
[2]; [4]
  IC50: 0.007 µg/mL
[2]; CX-1, Table XVI, unsymmetrical dyes, CX-1 cells, read-out: CX
  IC50: 0.007 µg/mL
[2]
  Selectivity: 428.57
  CV/CX (selectivity, kill ratio): 430 and 428.57
[2]; Table XVI, selectivity ratio of IC50 values
  CV/CX: 428.6

## CC[n+]1c(/C=C/C=C2\SC=C(C)N2C)oc2ccccc21 [Dye D-120]
[1]; [3]
  IC50: 5 µg/mL
[2]; [4]
  IC50: 0.01 µg/mL
[2]
  CV/CX (selectivity, kill ratio): 500

## CCN1/C(=C/C=C/c2oc3ccc(OC)cc3[n+]2CC)Sc2ccccc21.[I-] [Dye D-136]
[1]; colonies after 7-10 days
  CV (IC50 in the CV-1 cell line): 0.3 µg/mL
[2]; colonies after 7-10 days
  CX (IC50 in the CX-1 cell line): <0.005 µg/mL
[2]
  CV/CX (selectivity, kill ratio): >60.0 and 60

## CC[n+]1c(/C=C/C=C2/c3c(C)ccc(C)c3C(C)(Cc3ccccc3)N2C)sc2ccc3ccccc3c21 [Dye D-133]
[1]; [3]
  IC50: 3 µg/mL
[2]; [4]
  IC50: 0.009 µg/mL
[2]
  Selectivity: 333.5
  CV/CX (selectivity, kill ratio): 333.5

## CCN(CC)CCN1/C(=C/C(C)=C/c2sc3ccccc3[n+]2CCN(CC)CC)Sc2ccccc21 [Dye D-121]
[1]; [3]
  IC50: 0.8 µg/mL
[2]; [4]
  IC50: 0.01 µg/mL
[2]
  CV/CX (selectivity, kill ratio): 80

## C(=C\c1cc[n+]2c3c(cccc13)Sc1ccccc1-2)/C=c1\ccn2c3ccccc3sc3cccc1c3-2 [Dye D-117]
[1]; [3]
  IC50: 7 µg/mL
[2]; [4]
  IC50: 0.1 µg/mL
[2]
  CV/CX (selectivity, kill ratio): 70

## CCN1/C(=C/C=C/c2sc3c([n+]2C)CCCC3)Sc2ccccc21 [Dye D-146]
[1]; [3]
  IC50: 0.3 µg/mL
[2]; [4]
  IC50: ≤ 0.004 µg/mL
[2]
  CV/CX (selectivity, kill ratio): 75.0 and 60

## CCSC(=C\c1oc2ccccc2[n+]1C)/C=C1\Sc2ccccc2N1CC.[I-] [Dye D-127]
[1]; colonies after 7-10 days
  CV (IC50 in the CV-1 cell line): 0.3 µg/mL
[2]
  CV/CX (selectivity, kill ratio): 60
